Measured values: ChEMBL document CHEMBL1130242, “3 Beta-(4-ethyl-3-iodophenyl)nortropane-2 beta-carboxylic acid methyl ester as a high-affinity selective ligand for the serotonin transporter” (J Med Chem, 1997)

Assays:
[1] = biological target: Monoamine transporters; Norepininephrine & dopamine (Rattus norvegicus) (UniProt P23977+Q9WTR4); experiment: Selectivity ratio is IC50 value of NET to that of DAT; format: protein assay
[2] = biological target: Monoamine transporters; serotonin & dopamine (Rattus norvegicus) (UniProt P31652+P23977); experiment: Selectivity ratio is IC50 value of 5-HTT to that of DAT; format: protein assay
[3] = biological target: Sodium-dependent dopamine transporter (Rattus norvegicus, UniProt P23977); experiment: In vitro inhibitory activity against radioligand [3H]-[…] binding to dopamine transporter (DAT) in rat striatal tissue; format: tissue-based, Striatum
[4] = biological target: Norepinephrine transporter (Rattus norvegicus, UniProt Q9WTR4); experiment: In vitro inhibitory activity against radioligand [3H]-[…] binding to norepinephrine transporter (NET) in rat cortical tissue
[5] = biological target: Sodium-dependent serotonin transporter (Rattus norvegicus, UniProt P31652); experiment: In vitro inhibitory activity against radioligand [3H]paroxetine binding to serotonin transporter (5-HTT) in rat midbrain tissue; format: tissue-based
Sequence of Sodium-dependent serotonin transporter (P31652 whole entry): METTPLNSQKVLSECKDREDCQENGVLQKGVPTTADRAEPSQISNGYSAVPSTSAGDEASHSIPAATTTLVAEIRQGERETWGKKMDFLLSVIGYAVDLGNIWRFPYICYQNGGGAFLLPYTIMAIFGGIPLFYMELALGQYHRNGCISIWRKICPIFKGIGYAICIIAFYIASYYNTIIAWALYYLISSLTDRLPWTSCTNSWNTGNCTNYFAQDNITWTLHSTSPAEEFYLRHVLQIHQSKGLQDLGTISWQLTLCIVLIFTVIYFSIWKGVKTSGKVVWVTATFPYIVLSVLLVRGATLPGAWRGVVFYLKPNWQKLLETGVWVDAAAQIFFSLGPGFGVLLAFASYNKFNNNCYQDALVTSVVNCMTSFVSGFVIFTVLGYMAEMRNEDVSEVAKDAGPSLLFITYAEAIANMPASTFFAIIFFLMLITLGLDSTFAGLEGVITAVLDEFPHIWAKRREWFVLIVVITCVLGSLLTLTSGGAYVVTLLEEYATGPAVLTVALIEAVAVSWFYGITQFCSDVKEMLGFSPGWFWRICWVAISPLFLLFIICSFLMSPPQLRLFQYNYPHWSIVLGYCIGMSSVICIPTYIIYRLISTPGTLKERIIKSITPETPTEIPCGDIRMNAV

Sequence of Sodium-dependent dopamine transporter (P23977 whole entry): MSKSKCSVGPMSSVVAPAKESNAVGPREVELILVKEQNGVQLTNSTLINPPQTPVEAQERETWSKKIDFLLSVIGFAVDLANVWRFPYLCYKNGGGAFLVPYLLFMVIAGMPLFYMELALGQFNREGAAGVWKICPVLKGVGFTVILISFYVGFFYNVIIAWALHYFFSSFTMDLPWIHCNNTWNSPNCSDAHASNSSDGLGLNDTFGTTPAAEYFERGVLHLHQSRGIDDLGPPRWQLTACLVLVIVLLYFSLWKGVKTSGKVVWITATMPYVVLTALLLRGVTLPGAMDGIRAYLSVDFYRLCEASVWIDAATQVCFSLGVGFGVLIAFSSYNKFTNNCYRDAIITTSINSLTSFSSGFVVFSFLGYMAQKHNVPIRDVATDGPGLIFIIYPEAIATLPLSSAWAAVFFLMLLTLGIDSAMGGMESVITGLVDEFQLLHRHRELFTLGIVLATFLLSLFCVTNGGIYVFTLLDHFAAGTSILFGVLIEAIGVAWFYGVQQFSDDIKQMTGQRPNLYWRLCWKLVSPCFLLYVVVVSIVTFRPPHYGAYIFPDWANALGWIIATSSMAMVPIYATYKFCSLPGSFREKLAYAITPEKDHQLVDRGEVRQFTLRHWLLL
Sequence of Monoamine transporters; serotonin & dopamine (Rattus norvegicus) (P23977 whole entry, looked up): as the sequence (P23977 whole entry) above
Sequence of Monoamine transporters; serotonin & dopamine (Rattus norvegicus) (P31652 whole entry, looked up): as the sequence (P31652 whole entry) above
Sequence of Norepinephrine transporter (Q9WTR4 whole entry): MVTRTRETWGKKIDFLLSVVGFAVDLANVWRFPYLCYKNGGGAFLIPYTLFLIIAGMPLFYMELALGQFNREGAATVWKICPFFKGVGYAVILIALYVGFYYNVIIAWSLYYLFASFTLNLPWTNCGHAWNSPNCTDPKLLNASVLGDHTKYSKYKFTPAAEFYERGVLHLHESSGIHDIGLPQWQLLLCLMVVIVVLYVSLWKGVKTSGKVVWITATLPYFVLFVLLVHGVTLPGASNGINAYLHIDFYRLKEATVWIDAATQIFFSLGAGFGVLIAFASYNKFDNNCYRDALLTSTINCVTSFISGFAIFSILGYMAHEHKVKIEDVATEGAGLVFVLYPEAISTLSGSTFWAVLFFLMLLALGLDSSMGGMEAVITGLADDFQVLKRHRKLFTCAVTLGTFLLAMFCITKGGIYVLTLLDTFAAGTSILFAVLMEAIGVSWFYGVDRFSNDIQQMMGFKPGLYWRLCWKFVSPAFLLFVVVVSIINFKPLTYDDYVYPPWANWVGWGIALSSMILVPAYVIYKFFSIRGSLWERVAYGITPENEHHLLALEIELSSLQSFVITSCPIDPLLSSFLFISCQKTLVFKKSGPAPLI

`CCc1ccc(C2CC3CC[C@@H](N3)C2C(=O)OC)cc1` (some centres undefined) showed a Ratio [1] of 2.5 and a Ratio [2] of 0.2.
With `CCc1ccc(C2CC3CC[C@@H](N3)C2C(=O)OC)cc1I` (some centres undefined) the IC50 [3] was 0.329 µM, the Ratio [1] was 40 and the Ratio [2] was 87. For the same molecule, the IC50 [4] was 0.148 µM.
In the case of `COC(=O)C1C(c2cccc(I)c2)CC2CC[C@H]1N2C` (some centres undefined), the IC50 [3] is reported as 0.026 µM, the Ratio [1] is reported as 61 and the Ratio [2] is reported as 1.5. The IC50 [5] was 0.0388 µM and the IC50 [4] was 1.59 µM.
Work on `COC(=O)C1C(c2ccc(Cl)cc2)CC2CC[C@H]1N2` (some centres undefined) yielded an IC50 [3] of 0.00062 µM, a Ratio [1] of 7 and a Ratio [2] of 9. For the same molecule, the IC50 [5] was 0.00545 µM and the IC50 [4] was 0.00413 µM.
With `CCc1ccc(C2CC3CC[C@H](C2C(=O)OC)N3C)cc1` (some centres undefined) the Ratio [1] was 71, the Ratio [2] was 0.52 and the IC50 [4] was 0.039 µM.
